These results are taken from US9822414B2, “In vitro method for predicting in vivo genotoxicity of chemical compounds” (priority 2011, dated 2017).

One data set relates to NR0B2. Kind of data set: Gene expression of NR0B2 in HepG2 cells exposed to compound (microarray, log2 treatment:control ratio). The data set is classed as cell-based, human.
The test system of a further data set is PWWP2B. As to the kind of experiment: Gene expression of PWWP2B in HepG2 cells exposed to compound (microarray, log2 treatment:control ratio). Type of data set: cell-based, human.
The next data set deals with LOC100505880. Kind of data set: Gene expression of LOC100131914/LOC100505880 in HepG2 cells exposed to compound (microarray, log2 treatment:control ratio). Type of data set: cell-based, human.
Data set [1] concerns HepG2 cell.
The subject of the next data set is Salmonella typhimurium. As to conditions: cited from earlier work.
The next data set has as its system rodents. As to conditions: cited from earlier work; for In vivo GTX: positive when at least one in vivo assay (MN, CA) positive, equivocal considered positive.
Data set [2] deals with conventional in vitro genotoxicity assays. The note with it: cited from earlier work.
Data set [3] concerns HepG2 cell. Kind of data set: Class prediction of in vivo genotoxicity by the method of the invention (Ames stratification plus three-gene expression in HepG2). The note with it: for Prediction (class prediction results using the method of the invention): 62 compounds, three replicates, HepG2 24 h.

Where “and” joins values, the source holds several entries; their conditions need not be identical. Identical values can stand only once.

Regarding `ClCc1ccccn1` [2CMP], the “NR0B2 above or below the reference value” in the data set on NR0B2 is on record as “− (minus sign indicates a value below the reference value)”. Also, the “Log2 treatment: control ratio PWWP2B” value with PWWP2B was −0.214 and −0.23 and −0.031. In addition, the “LOC100505880 above or below the reference value” in the data set on LOC100505880 was “− (minus sign indicates a value below the reference value)”. Moreover, in the data set with HepG2 cell [1], the “At least ⅔ genes +?” value was “NGTX” and the “Average result over three measurements” value is “NGTX”. Moreover, the Ames result in the data set on Salmonella typhimurium is reported as “+”. Moreover, the “Standard (in vivo genotoxicity designation)” value (from here on “Standard”) in the data set on rodents is reported as “NGTX”. Further, the “In vitro GTX” value in data set [2] is “+”. Moreover, in the data set on HepG2 cell [3], the “Prediction (class prediction results using the method of the invention)” value (shortened to “Prediction”) was “NGTX”.
Consider `COc1cc2c(c3oc(=O)c4c(c13)CCC4=O)[C@@H]1C=CO[C@@H]1O2` [AFB1], for which, in the data set on NR0B2, the “NR0B2 above or below the reference value” is listed as “+ (Plus sign indicates a value above the reference value)”. Besides, in the data set on PWWP2B, the “Log2 treatment: control ratio PWWP2B” value was 0.098 and 0.275 and 0.088; the “PWWP2B above or below the reference value” was “+ (Plus sign indicates a value above the reference value)”. The “LOC100505880 above or below the reference value” in the data set with LOC100505880 is recorded as “+ (Plus sign indicates a value above the reference value)”. Also, in the data set with HepG2 cell [1], the “At least ⅔ genes +?” value is “GTX” and the “Average result over three measurements” value is given as “GTX”. Moreover, the Ames entry with Salmonella typhimurium is reported as “+”. In the data set on rodents, the “Standard” value is reported as “GTX” and the “In vivo GTX” value is “+”. In addition, in data set [2], the “In vitro GTX” value is “+”. The “Prediction” value in the data set with HepG2 cell [3] was “GTX”.
On to `COc1ccc(N)cc1` [Anis], for which the “NR0B2 above or below the reference value” with NR0B2 is “+ (Plus sign indicates a value above the reference value)”. In addition, in the data set with PWWP2B, the “Log2 treatment: control ratio PWWP2B” value is 0.013 and 0.076 and 0.253; the “PWWP2B above or below the reference value” is listed as “+ (Plus sign indicates a value above the reference value)”. In the data set on LOC100505880, the “LOC100505880 above or below the reference value” is recorded as “+ (Plus sign indicates a value above the reference value)”. Besides, in the data set on HepG2 cell [1], the “At least ⅔ genes +?” value is recorded as “GTX” and the “Average result over three measurements” value was “GTX”. The Ames entry with Salmonella typhimurium is listed as “+”. For the same compound, the “Standard” value in the data set with rodents was “NGTX”. The “In vitro GTX” value in data set [2] is “+”. Further, the “Results in the conventional in vitro genotoxicity assays” value in data set [2] (see Table 5) is “positive results”. In the data set on HepG2 cell [3], the “Prediction” value is “GTX”. Besides, the “Classification of NGTX compounds by the method of the invention (false positives)” value in the data set with HepG2 cell [3] (in vivo NGTX compounds) is reported as “misclassification”.
For the compound `Cc1c2ccccc2c(C)c2c1ccc1ccccc12` [DMBA], in the data set on NR0B2, the “Log2 treatment: control ratio NR0B2” value is 0.064 and −0.116 and −0.076. In addition, in the data set with PWWP2B, the “Log2 treatment: control ratio PWWP2B” value was −0.155 and 0.088 and −0.102. Also, the “Log2 treatment: control ratio LOC100505880” value in the data set with LOC100505880 was 0.08 and −0.059 and −0.025. Also, the “Average result over three measurements” value in the data set on HepG2 cell [1] is recorded as “GTX”. Moreover, the Ames entry in the data set on Salmonella typhimurium was “+”. Further, in the data set on rodents, the “Standard” value is recorded as “GTX” and the “In vivo GTX” value is “+”. Moreover, the “In vitro GTX” value in data set [2] is “+”. The “Prediction” value in the data set with HepG2 cell [3] was “GTX+”.
`[NH2][Pt]([NH2])([Cl])[Cl]` [cisPt]: in the data set with NR0B2, the “NR0B2 above or below the reference value” is “+ (Plus sign indicates a value above the reference value)”. For the same compound, the “Log2 treatment: control ratio PWWP2B” value with PWWP2B was 0.095 and −0.147 and −0.18. In the data set with LOC100505880, the “LOC100505880 above or below the reference value” is recorded as “+ (Plus sign indicates a value above the reference value)”. In the data set on HepG2 cell [1], the “At least ⅔ genes +?” value is given as “GTX” and the “Average result over three measurements” value was “GTX”. Besides, the Ames result in the data set with Salmonella typhimurium is reported as “+”. Moreover, in the data set with rodents, the “Standard” value was “GTX” and the “In vivo GTX” value is given as “+”. The “In vitro GTX” value in data set [2] is “+”. Besides, in the data set on HepG2 cell [3], the “Prediction” value is given as “GTX”.
